Test results as given in patent publication US20200368315A1, “ANTIMICROBIAL PEPTIDES AND ADMIXTURES THEREOF SHOWING ANTIMICROBIAL ACTIVITY AGAINST GRAM-NEGATIVE PATHOGENS” (priority 2017, published 2020).
≈ marks a conversion by molar mass, not a printed value.

Tests used:
[1] = in vitro; conditions: human
Description: ATP levels were measured by adding 50 μL of CellTiter-Glo reagent to each well and after 5 minutes of incubation luminescence was measured with SpectraMax i3.
96-well plates were seeded with HEK293 cells at concentration of 30,000 cells per well in 100 μL of DMEM growth media supplemented with 1% NEAA and 10% FBS. Border wells were filled with 100 μL of sterile PBS. The next day compounds were added to cells. Compounds were first 2× diluted in 96-well V-bottom plate in PBS. After that compounds were mixed with media in 96-deep-well plate for final concentrations. Growth media from 3 plates was aspirated and replaced with 100 μL of prepared compounds. Compounds were tested in duplicate. ATP levels were measured by adding 50 μL of CellTiter-Glo reagent to each well and after 5 minutes of incubation luminescence was measured with SpectraMax i3. […] The potential effects were then calculated and presented as IC50 values (μg/mL).

[2] = system: Acinetobacter baumannii ATCC 17978; assay: microbe, parasite or virus in culture; format: cell-based; conditions: ATCC 17978
Description: (§1) Testing was performed according to CLSI (Clinical Laboratory Standards Institute) guidelines. Read out of the study was determination of MIC—minimal inhibitory concentration expressed in μg/mL.
(§2) Out of these PBS solutions, 76.8 μL was transferred to 1423.2 μL of MH media in deep well for testing compound alone. […] Out of these working solutions 100 μL were transferred to wells in the third column of 96-well assay plates. Assay plates were previously filled with 50 μL of MH media in all wells except for the wells in the third column.
(§3) Microorganisms used were all revived from skim milk storage at −70° C. by plating them on MH agar plates. The following day a single colony of each microorganism was again streaked on fresh agar plates. The next day, using direct colony suspension method, broth solutions that achieve turbidity equivalent to 0.5 McFarland standard for each microorganism were prepared. […] Out of these suspensions, actual inoculums were prepared by diluting them 100× with MH media giving final microorganism count of 2-8×10^5 CFU/mL. For each strain of microorganisms, 20 mL of these inoculum solutions were prepared. From the second to the twelfth column of 96-well plates, 50 μL of these solutions were transferred per well. To the first column, 50 μL per well of pure growth media was added. In this manner the first column was used as sterility control of media used, the second column was used as control of microorganism's growth and the rest of the plate was used for MIC determination. All plates were incubated for 16-24 h at 37° C.
(§4) MIC value was determined by visual inspection of bacterial growth within 96-well plates. The first column in which there was no visible growth of bacteria was determined as MIC value for peptide or combination tested in that particular row.

[3] = system: Klebsiella pneumoniae ATCC 700603; assay: microbe, parasite or virus in culture; format: cell-based; conditions: ATCC 700603
Description: as §1, §2, §3, §4

[4] = system: Escherichia coli ATCC 25922; assay: microbe, parasite or virus in culture; format: cell-based; conditions: ATCC 25922
Description: as §1, §2, §3, §4

[5] = system: Pseudomonas aeruginosa ATCC 27853; assay: microbe, parasite or virus in culture; format: cell-based; conditions: ATCC 27853
Description: as §1, §2, §3, §4

[6] = system: Klebsiella pneumoniae B1945, clinical isolate; assay: microbe, parasite or virus in culture; conditions: B1945, clinical isolate
Description: as §1, §2, §3, §4

[7] = system: Acinetobacter baumannii B2026, clinical isolate; assay: microbe, parasite or virus in culture; conditions: B2026, clinical isolate
Description: as §1, §2, §3, §4

[8] = system: Pseudomonas aeruginosa ATCC BAA-2108; assay: microbe, parasite or virus in culture; conditions: ATCC BAA-2108
Description: as §1, §2, §3, §4

[9] = system: Escherichia coli B1927, clinical isolate; assay: microbe, parasite or virus in culture; conditions: B1927, clinical isolate
Description: as §1, §2, §3, §4

[10] = system: Pseudomonas aeruginosa B1954, clinical isolate; assay: microbe, parasite or virus in culture; conditions: B1954, clinical isolate
Description: as §1, §2, §3, §4

[11] = system: Klebsiella pneumoniae ATCC BAA-2524; assay: microbe, parasite or virus in culture; conditions: ATCC BAA-2524
Description: as §1, §2, §3, §4

[12] = system: Escherichia coli ATCC BAA-2452; assay: microbe, parasite or virus in culture; conditions: ATCC BAA-2452
Description: as §1, §2, §3, §4

[13] = system: Acinetobacter baumannii ATCC BAA-1605; assay: microbe, parasite or virus in culture; conditions: ATCC BAA-1605
Description: as §1, §2, §3, §4

Row | SMILES | IC50 [1] [µg/mL] | MIC [2] [µg/mL] | MIC [3] [µg/mL] | MIC [4] [µg/mL] | MIC [5] [µg/mL] | MIC [6] [µg/mL] | MIC [7] [µg/mL] | MIC [8] [µg/mL] | MIC [9] [µg/mL] | MIC [10] [µg/mL] | MIC [11] [µg/mL] | MIC [12] [µg/mL] | MIC [13] [µg/mL]
1 | CC[C@@H](C)[C@@H](NC(=O)[C@@H](CCCNC(=N)N)NC(=O)[C@@H](CCCNC(=N)N)NC(=O)[C@@H](Cc1ccccc1)NC(=O)[C@@H](CC(C)C)NC(=O)[C@@H](CCCNC(=N)N)NC(=O)[C@H](N)CCCNC(=N)N)C(=O)N[C@H](CC(C)C)C(=O)N[C@H](CCCNC(=N)N)C(=O)N[C@H](Cc1c[nH]c2ccccc12)C(=O)N[C@H](CC(C)C)C(N)=O [D6] | 52.1 (≈ 32.9 µM) | 2 | 4 | 2 | 4 | 8 | 4 | 8 | 2 | 4 | 4 | 2 | 8
2 | CC[C@@H](C)[C@@H](NC(=O)[C@H](N)CCCNC(=N)N)C(=O)N[C@@H](C(=O)N[C@H](CCC(N)=O)C(=O)N[C@H](CCCNC(=N)N)C(=O)N[C@@H](C(=O)N[C@H](CCCCN)C(=O)N[C@H](CCCCN)C(=O)N[C@H](Cc1c[nH]c2ccccc12)C(=O)N[C@H](CC(C)C)C(=O)N[C@H](CCCNC(=N)N)C(N)=O)[C@H](C)CC)C(C)C [D8] | > 64 | 16 | >128 | 8 | 64 | 32 | 16 | >128 | 4 | 128 | >128 | 8 | 16
